Assay results taken from the supplement of paper PMC10307832.

Legend:
Assay in all cases: relative viability (nuclei count vs DMSO), 5 days (fraction); higher = more cells survive
[1] = compound: Nc1nc2[nH]cc(CCc3ccc(C(=O)N[C@@H](CCC(=O)O)C(=O)O)cc3)c2c(=O)[nH]1 [Pemetrexed] + O=C(c1cc(Cc2n[nH]c(=O)c3ccccc23)ccc1F)N1CCN(C(=O)C2CC2)CC1 [Olaparib] (partner 8 µM)
Method in brief: (§1)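 Five library-drug doses in √10 steps were combined with a fixed anchor-drug dose, or a single drug was given alone, by pin tool to lung cancer cell lines in 1536-well plates the day after seeding. Nuclei were stained and counted after 5 days. Relative viability is the nuclei count in treated wells over that in vehicle wells, taken as the median of duplicate plates.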

[2] = compound: Nc1nc2[nH]cc(CCc3ccc(C(=O)N[C@@H](CCC(=O)O)C(=O)O)cc3)c2c(=O)[nH]1 [Pemetrexed] + C[C@@H](Oc1cc(-c2cnn(C3CCNCC3)c2)cnc1N)c1c(Cl)ccc(F)c1Cl [Crizotinib] (partner 1 µM)
Method in brief: as §1

[3] = compound: Nc1nc2[nH]cc(CCc3ccc(C(=O)N[C@@H](CCC(=O)O)C(=O)O)cc3)c2c(=O)[nH]1 [Pemetrexed] + COc1cccc2cc(-c3nc([C@H]4CC[C@H](C(=O)O)CC4)n4ncnc(N)c34)[nH]c12 [OSI-027] (partner 0.5 µM)
Method in brief: as §1

[4] = compound: Nc1nc2[nH]cc(CCc3ccc(C(=O)N[C@@H](CCC(=O)O)C(=O)O)cc3)c2c(=O)[nH]1 [Pemetrexed] + CC(=O)Nc1cccc(-n2c(=O)n(C3CC3)c(=O)c3c(Nc4ccc(I)cc4F)n(C)c(=O)c(C)c32)c1 [Trametinib] (partner 0.02 µM)
Method in brief: as §1

| Cell Line | relative viability ([1]; first compound 0.002 µM) | relative viability ([1]; first compound 0.006325 µM) | relative viability ([1]; first compound 0.02 µM) | relative viability ([1]; first compound 0.06325 µM) | relative viability ([1]; first compound 0.2 µM) | relative viability ([2]; first compound 0.002 µM) | relative viability ([2]; first compound 0.006325 µM) | relative viability ([2]; first compound 0.02 µM) | relative viability ([2]; first compound 0.06325 µM) | relative viability ([2]; first compound 0.2 µM) | relative viability ([3]; first compound 0.002 µM) | relative viability ([3]; first compound 0.006325 µM) | relative viability ([3]; first compound 0.02 µM) | relative viability ([3]; first compound 0.06325 µM) | relative viability ([3]; first compound 0.2 µM) | relative viability ([4]; first compound 0.002 µM) | relative viability ([4]; first compound 0.006325 µM) | relative viability ([4]; first compound 0.02 µM) | relative viability ([4]; first compound 0.06325 µM) | relative viability ([4]; first compound 0.2 µM) |
| --- | --- | --- | --- | --- | --- | --- | --- | --- | --- | --- | --- | --- | --- | --- | --- | --- | --- | --- | --- | --- |
| NCI-H358 | 0.582 | 0.622 | 0.66 | 0.397 | 0.151 | 0.555 | 0.524 | 0.558 | 0.287 | 0.179 | 0.729 | 0.751 | 0.638 | 0.191 | 0.106 | 0.133 | 0.117 | 0.151 | 0.125 | 0.125 |
| SK-LU-1 | 0.405 | 0.5 | 0.58 | 0.51 | 0.455 | 0.771 | 0.883 | 0.858 | 0.953 | 0.731 | 0.312 | 0.319 | 0.398 | 0.352 | 0.34 | 0.412 | 0.478 | 0.61 | 0.402 | 0.424 |
| H3255 | 0.563 | 0.602 | 0.586 | 0.573 | 0.519 |  | 0.952 | 0.926 | 0.864 | 0.608 | 0.542 | 0.55 | 0.598 | 0.659 | 0.585 | 0.517 | 0.581 | 0.673 | 0.55 | 0.515 |
| LOU-NH91 | 0.864 | 0.886 | 0.93 | 0.819 | 0.455 | 0.701 | 0.747 | 0.988 | 0.636 | 0.504 | 0.68 | 0.727 | 0.789 | 0.667 | 0.531 | 0.754 | 0.759 | 0.782 | 0.682 | 0.638 |
| NCI-H1666 | 0.765 | 0.785 | 0.787 | 0.728 | 0.694 | 1.08 | 0.9 | 0.986 | 0.865 | 0.635 | 0.961 | 0.758 | 0.955 | 0.906 | 0.79 | 0.845 | 0.826 | 0.926 | 0.873 | 0.784 |
| SK-MES-1 | 0.603 | 0.708 | 0.821 | 0.649 | 0.627 | 1.06 | 0.938 | 0.99 | 1.01 | 0.832 | 0.72 | 0.611 | 0.615 | 0.572 | 0.554 | 0.553 | 0.568 | 0.618 | 0.559 | 0.539 |
| NCI-H2023 | 0.431 | 0.463 | 0.456 | 0.36 | 0.158 | 0.632 | 0.616 | 0.685 | 0.607 | 0.377 | 0.248 | 0.38 | 0.464 | 0.295 | 0.166 | 0.502 | 0.553 | 0.537 | 0.392 | 0.183 |
| COR-L 105 | 0.706 | 0.74 | 0.746 | 0.738 | 0.662 | 0.78 | 0.75 | 0.895 | 0.88 | 0.75 | 0.735 | 0.638 | 1.01 | 0.646 | 0.619 | 0.442 | 0.423 | 0.47 | 0.479 | 0.453 |
| NCI-H838 | 0.755 | 0.75 | 0.837 | 0.471 | 0.216 | 0.83 | 0.814 | 1.03 | 0.935 | 0.415 | 0.454 | 0.292 | 0.379 | 0.244 | 0.197 | 0.555 | 0.53 | 0.664 | 0.393 | 0.169 |
| SW 1573 | 0.477 | 0.45 | 0.472 | 0.423 | 0.43 | 0.658 | 0.79 | 0.919 | 0.888 | 0.791 | 0.602 | 0.465 | 0.718 | 0.646 | 0.61 | 0.511 | 0.521 | 0.572 | 0.474 | 0.577 |
